Results reported in ChEMBL document CHEMBL1201862, “PubChem BioAssay data set” (2004).
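1) Cells in 96-well plates. 2) Compound, 48 h, 5 concentrations. 3) Linear interpolation between surrounding doses. 4) Unreached endpoint = highest concentration. GI50 is the concentration that inhibits growth by half.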 The source made the active and inactive calls. No stated cut-off is given here; in the data, active = GI50 up to about 1.1 µM and inactive = higher.

Columns and labels:
Assay in all cases: inhibition of tumour cell growth, NCI panel, 48 h
ACHN = tested on: ACHN
MCF7 = tested on: MCF7
RPMI-8226 = tested on: RPMI-8226
PC-3 = tested on: PC-3
A549 = tested on: A549
HOP-62 = tested on: HOP-62
SNB-75 = tested on: SNB-75
SNB-19 = tested on: SNB-19
LOX IMVI = tested on: LOX IMVI
SN12C = tested on: SN12C
SK-MEL-5 = tested on: SK-MEL-5
MDA-N = tested on: MDA-N
NCI-H522 = tested on: NCI-H522
COLO 205 = tested on: COLO 205
KM12 = tested on: KM12
HCT-15 = tested on: HCT-15
HT-29 = tested on: HT-29
SK-OV-3 = tested on: SK-OV-3
UACC-257 = tested on: UACC-257
MDA-MB-231 = tested on: MDA-MB-231
HOP-92 = tested on: HOP-92
IGROV-1 = tested on: IGROV-1
U-251 = tested on: U-251
OVCAR-4 = tested on: OVCAR-4
SF-539 = tested on: SF-539
CAKI-1 = tested on: CAKI-1
DU-145 = tested on: DU-145
SR = tested on: SR
HCT-116 = tested on: HCT-116
NCI-H226 = tested on: NCI-H226
UO-31 = tested on: UO-31
NCI-H23 = tested on: NCI-H23
SF-295 = tested on: SF-295
SK-MEL-2 = tested on: SK-MEL-2
Malme-3M = tested on: Malme-3M
TK-10 = tested on: TK-10
HL-60 = tested on: HL-60
EKVX = tested on: EKVX
CCRF-CEM = tested on: CCRF-CEM
MOLT-4 = tested on: MOLT-4
OVCAR-5 = tested on: OVCAR-5
K562 = tested on: K562
OVCAR-8 = tested on: OVCAR-8
RXF 393 = tested on: RXF 393
MDA-MB-435 = tested on: MDA-MB-435
OVCAR-3 = tested on: OVCAR-3
T47D = tested on: T47D
UACC-62 = tested on: UACC-62
SW-620 = tested on: SW-620
786-0 = tested on: 786-0
SK-MEL-28 = tested on: SK-MEL-28
SF-268 = tested on: SF-268
BT-549 = tested on: BT-549
NCI-H460 = tested on: NCI-H460
Hs-578T = tested on: Hs-578T
M14 = tested on: M14
A498 = tested on: A498
NCI/ADR-RES = tested on: NCI/ADR-RES

Q: What does the source list for `CC1=C(Br)C(=O)C(C)=C(Br)C1=O.Cc1c(O)c(Br)c(C)c(O)c1Br`?
A: GI50 (ACHN): 1680 nM (inactive); GI50 (MCF7): 1960 nM (inactive); GI50 (RPMI-8226): 2270 nM (inactive); GI50 (PC-3): 2050 nM (inactive); GI50 (A549): 18300 nM (inactive); GI50 (HOP-62): 12000 nM (inactive); GI50 (SNB-75): 14200 nM (inactive); GI50 (SNB-19): 18100 nM (inactive); GI50 (LOX IMVI): 1870 nM (inactive); GI50 (SN12C): 1800 nM (inactive); GI50 (SK-MEL-5): 4220 nM (inactive); GI50 (MDA-N): 1810 nM (inactive); GI50 (NCI-H522): 1990 nM (inactive); GI50 (COLO 205): 1980 nM (inactive); GI50 (KM12): 19400 nM (inactive); GI50 (HCT-15): 2070 nM; GI50 (HT-29): 2070 nM (inactive); GI50 (SK-OV-3): 15600 nM (inactive); GI50 (UACC-257): 1600 nM (inactive); GI50 (MDA-MB-231): 4400 nM (inactive); GI50 (HOP-92): 1780 nM (inactive); GI50 (IGROV-1): 7830 nM (inactive); GI50 (U-251): 6470 nM (inactive); GI50 (OVCAR-4): 1790 nM (inactive); GI50 (SF-539): 4780 nM (inactive); GI50 (CAKI-1): 2140 nM (inactive); GI50 (DU-145): 2310 nM (inactive); GI50 (SR): 925 nM (active); GI50 (HCT-116): 1690 nM (inactive); GI50 (NCI-H226): 6650 nM (inactive); GI50 (UO-31): 1850 nM (inactive); GI50 (NCI-H23): 2210 nM (inactive); GI50 (SF-295): 16300 nM (inactive); GI50 (SK-MEL-2): 3530 nM (inactive); GI50 (Malme-3M): 2100 nM (inactive); GI50 (TK-10): 1640 nM (inactive); GI50 (HL-60): 1120 nM (active); GI50 (EKVX): 1850 nM (inactive); GI50 (CCRF-CEM): 216 nM (active); GI50 (MOLT-4): 783 nM (active); GI50 (OVCAR-5): 10800 nM (inactive); GI50 (K562): 1410 nM (inactive); GI50 (OVCAR-8): 1930 nM (inactive); GI50 (RXF 393): 1880 nM (inactive); GI50 (MDA-MB-435): 1890 nM (inactive); GI50 (OVCAR-3): 1830 nM (inactive); GI50 (T47D): 2520 nM (inactive); GI50 (UACC-62): 5550 nM (inactive); GI50 (SW-620): 1970 nM (inactive); GI50 (786-0): 1770 nM (inactive); GI50 (SK-MEL-28): 1910 nM (inactive); GI50 (SF-268): 4170 nM (inactive); GI50 (BT-549): 5330 nM (inactive); GI50 (NCI-H460): 6710 nM (inactive); GI50 (Hs-578T): 5920 nM (inactive); GI50 (M14): 1670 nM (inactive); GI50 (A498): 15300 nM (inactive); GI50 (NCI/ADR-RES): 4310 nM (inactive)
